Assay results taken from ChEMBL document CHEMBL4800729 (2021).

Experiments:
[1] = target: Mitogen-activated protein kinase 14 (Homo sapiens) (UniProt Q16539); assay: SAPK2a(h) Millipore kinase panel; details: Compound concentration 1.0 uM
[2] = target: NUAK family SNF1-like kinase 1 (Homo sapiens) (UniProt O60285); assay: ARK5(h) Millipore kinase panel; details: Compound concentration 1.0 uM
[3] = target: Histamine H1 receptor (Homo sapiens) (UniProt P35367); details: Compound concentration 10.0 uM
[4] = target: Serine/threonine-protein kinase DCLK2 (Homo sapiens) (UniProt Q8N568); assay: DCAMKL2(h) Millipore kinase panel; details: Compound concentration 1.0 uM
[5] = target: LIM domain kinase 1 (Homo sapiens) (UniProt P53667); assay: LIMK1(h) Millipore kinase panel; details: Compound concentration 1.0 uM
[6] = target: Casein kinase I isoform gamma-2 (Homo sapiens) (UniProt P78368); assay: CK1gamma2(h) Millipore kinase panel; details: Compound concentration 1.0 uM
[7] = target: Tyrosine-protein kinase Lyn (Homo sapiens) (UniProt P07948); assay: Lyn(h) Millipore kinase panel; details: Compound concentration 1.0 uM
[8] = target: [Pyruvate dehydrogenase (acetyl-transferring)] kinase isozyme 2, mitochondrial (Homo sapiens) (UniProt Q15119); assay: PDHK2(h) Millipore kinase panel; details: Compound concentration 1.0 uM
[9] = target: Serine/threonine-protein kinase VRK1 (Homo sapiens) (UniProt Q99986); assay: VRK1(h) Millipore kinase panel; details: Compound concentration 1.0 uM
Rattus norvegicus = organism: Rattus norvegicus; details: Compound concentration 10.0 uM
[10] = target: Fibroblast growth factor receptor 2 (Homo sapiens) (UniProt P21802); assay: FGFR2(h) Millipore kinase panel; details: Compound concentration 1.0 uM
[11] = target: B1 bradykinin receptor (Homo sapiens) (UniProt P46663); details: Compound concentration 10.0 uM
[12] = target: MAP kinase-activated protein kinase 2 (Homo sapiens) (UniProt P49137); assay: MAPKAP-K2(h) Millipore kinase panel; details: Compound concentration 1.0 uM
[13] = target: Sodium-dependent dopamine transporter (Homo sapiens) (UniProt Q01959); details: Compound concentration 10.0 uM
[14] = target: Activated CDC42 kinase 1 (Homo sapiens) (UniProt Q07912); assay: ACK1(h) Millipore kinase panel; details: Compound concentration 1.0 uM
[15] = target: Cyclin-dependent kinase-like 3 (Homo sapiens) (UniProt Q8IVW4); assay: CDKL3(h) Millipore kinase panel; details: Compound concentration 1.0 uM
Homo sapiens = organism: Homo sapiens; details: Compound concentration 10.0 uM
[16] = target: Adenosine receptor A3 (Homo sapiens) (UniProt P0DMS8); details: Compound concentration 10.0 uM
[17] = target: Tyrosine-protein kinase Fgr (Homo sapiens) (UniProt P09769); assay: Fgr(h) Millipore kinase panel; details: Compound concentration 1.0 uM
[18] = target: Adenosine receptor A2a (Homo sapiens) (UniProt P29274); details: Compound concentration 10.0 uM
[19] = target: Death-associated protein kinase 2 (Homo sapiens) (UniProt Q9UIK4); assay: DAPK2(h) Millipore kinase panel; details: Compound concentration 1.0 uM
[20] = target: D(2) dopamine receptor (Homo sapiens) (UniProt P14416); details: Compound concentration 10.0 uM
[21] = target: Eukaryotic elongation factor 2 kinase (Homo sapiens) (UniProt O00418); assay: eEF-2K(h) Millipore kinase panel; details: Compound concentration 1.0 uM
[22] = target: Serine/threonine-protein kinase SIK1 (Homo sapiens) (UniProt P57059); assay: SIK(h) Millipore kinase panel; details: Compound concentration 1.0 uM
[23] = target: Transient receptor potential cation channel subfamily M member 7 (Homo sapiens) (UniProt Q96QT4); assay: ChaK1(h) Millipore kinase panel; details: Compound concentration 1.0 uM
[24] = target: Serine/threonine-protein kinase MARK1 (Homo sapiens) (UniProt Q9P0L2); assay: MARK1(h) Millipore kinase panel; details: Compound concentration 1.0 uM
[25] = target: Kappa-type opioid receptor (Homo sapiens) (UniProt P41145); details: Compound concentration 10.0 uM
[26] = target: D(1B) dopamine receptor (Homo sapiens) (UniProt P21918); details: Compound concentration 10.0 uM
[27] = target: Cyclin-dependent kinase-like 4 (Homo sapiens) (UniProt Q5MAI5); assay: CDKL4(h) Millipore kinase panel; details: Compound concentration 1.0 uM
[28] = target: Protein-tyrosine kinase 6 (Homo sapiens) (UniProt Q13882); assay: BRK(h) Millipore kinase panel; details: Compound concentration 1.0 uM
[29] = target: Epithelial discoidin domain-containing receptor 1 (Homo sapiens) (UniProt Q08345); assay: DDR1(h) Millipore kinase panel; details: Compound concentration 1.0 uM
[30] = target: Receptor-interacting serine/threonine-protein kinase 1 (Homo sapiens) (UniProt Q13546); assay: RIPK1(h) Millipore kinase panel; details: Compound concentration 1.0 uM
[31] = target: Protein kinase C alpha type (Homo sapiens) (UniProt P17252); assay: PKCalpha(h) Millipore kinase panel; details: Compound concentration 1.0 uM
[32] = target: Platelet-derived growth factor receptor beta (Homo sapiens) (UniProt P09619); assay: PDGFRbeta(h) Millipore kinase panel; details: Compound concentration 1.0 uM
[33] = target: T1, Muscarinic acetylcholine receptor M1 (Homo sapiens) (UniProt P11229); details: Compound concentration 10.0 uM
T1 sequence (whole entry): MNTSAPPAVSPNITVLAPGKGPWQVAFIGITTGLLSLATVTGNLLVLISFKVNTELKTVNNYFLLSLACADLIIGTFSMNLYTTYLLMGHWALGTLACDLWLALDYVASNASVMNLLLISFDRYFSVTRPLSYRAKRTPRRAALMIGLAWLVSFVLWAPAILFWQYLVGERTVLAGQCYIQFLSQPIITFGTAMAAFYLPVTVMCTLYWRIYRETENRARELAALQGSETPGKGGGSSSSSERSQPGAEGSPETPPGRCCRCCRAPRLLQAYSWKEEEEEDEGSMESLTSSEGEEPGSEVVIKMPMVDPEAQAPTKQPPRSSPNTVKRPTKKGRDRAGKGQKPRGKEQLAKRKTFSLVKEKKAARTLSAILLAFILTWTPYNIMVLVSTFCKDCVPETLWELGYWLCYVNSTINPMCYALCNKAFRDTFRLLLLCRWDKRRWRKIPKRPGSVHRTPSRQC

[34] = target: Serine/threonine-protein kinase 32C (Homo sapiens) (UniProt Q86UX6); assay: STK32C(h) Millipore kinase panel; details: Compound concentration 1.0 uM
[35] = target: Serine/threonine-protein kinase 4 (Homo sapiens) (UniProt Q13043); assay: MST1(h) Millipore kinase panel; details: Compound concentration 1.0 uM
[36] = target: Protein kinase C gamma type (Homo sapiens) (UniProt P05129); assay: PKCgamma(h) Millipore kinase panel; details: Compound concentration 1.0 uM
[37] = target: cAMP-dependent protein kinase catalytic subunit PRKX (Homo sapiens) (UniProt P51817); assay: PrKX(h) Millipore kinase panel; details: Compound concentration 1.0 uM
Sus scrofa = organism: Sus scrofa; assay: Inhibition of ATPase, Na+/K+, Heart at compound concentration of 10.0 uM in the Eurofins-Panlabs enzyme assay (Eurofins_assay_107710); set-up: substrate with concentration; details: Compound concentration 10.0 uM
[38] = target: Myosin-IIIb (Homo sapiens) (UniProt Q8WXR4); assay: MYO3B(h) Millipore kinase panel; details: Compound concentration 1.0 uM
[39] = target: 3-phosphoinositide-dependent protein kinase 1 (Homo sapiens) (UniProt O15530); assay: PDK1(h) Millipore kinase panel; details: Compound concentration 1.0 uM
[40] = target: Ephrin type-B receptor 3 (Homo sapiens) (UniProt P54753); assay: EphB3(h) Millipore kinase panel; details: Compound concentration 1.0 uM

Measured: inhibition

Chain of Epithelial discoidin domain-containing receptor 1 (Homo sapiens) (Q08345 whole entry, the tested form may be a part): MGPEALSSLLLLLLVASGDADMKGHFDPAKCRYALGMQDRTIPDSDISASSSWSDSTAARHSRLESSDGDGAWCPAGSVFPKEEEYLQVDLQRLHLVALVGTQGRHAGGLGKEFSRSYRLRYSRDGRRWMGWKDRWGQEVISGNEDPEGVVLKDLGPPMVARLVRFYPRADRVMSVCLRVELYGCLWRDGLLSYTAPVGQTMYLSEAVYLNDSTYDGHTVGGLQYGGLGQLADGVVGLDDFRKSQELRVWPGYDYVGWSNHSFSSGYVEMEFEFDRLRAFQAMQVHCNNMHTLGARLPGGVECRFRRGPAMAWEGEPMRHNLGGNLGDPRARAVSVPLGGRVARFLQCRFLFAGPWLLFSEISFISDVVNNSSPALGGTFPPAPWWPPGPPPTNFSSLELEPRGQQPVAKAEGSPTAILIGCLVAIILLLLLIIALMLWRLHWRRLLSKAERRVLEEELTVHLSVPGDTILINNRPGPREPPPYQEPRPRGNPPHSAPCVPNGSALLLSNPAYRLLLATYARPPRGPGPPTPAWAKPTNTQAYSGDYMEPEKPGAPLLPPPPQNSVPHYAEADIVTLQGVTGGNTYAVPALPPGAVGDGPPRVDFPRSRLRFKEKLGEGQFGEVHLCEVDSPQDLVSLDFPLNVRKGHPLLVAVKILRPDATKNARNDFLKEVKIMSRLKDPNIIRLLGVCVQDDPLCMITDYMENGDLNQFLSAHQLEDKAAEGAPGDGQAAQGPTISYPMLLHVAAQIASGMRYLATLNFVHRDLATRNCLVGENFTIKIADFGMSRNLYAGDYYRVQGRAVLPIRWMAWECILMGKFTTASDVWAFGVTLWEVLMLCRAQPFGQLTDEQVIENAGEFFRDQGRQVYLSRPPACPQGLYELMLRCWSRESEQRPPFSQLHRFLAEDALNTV
Chain of Tyrosine-protein kinase Fgr (Homo sapiens) (P09769 2-529 limits assumed): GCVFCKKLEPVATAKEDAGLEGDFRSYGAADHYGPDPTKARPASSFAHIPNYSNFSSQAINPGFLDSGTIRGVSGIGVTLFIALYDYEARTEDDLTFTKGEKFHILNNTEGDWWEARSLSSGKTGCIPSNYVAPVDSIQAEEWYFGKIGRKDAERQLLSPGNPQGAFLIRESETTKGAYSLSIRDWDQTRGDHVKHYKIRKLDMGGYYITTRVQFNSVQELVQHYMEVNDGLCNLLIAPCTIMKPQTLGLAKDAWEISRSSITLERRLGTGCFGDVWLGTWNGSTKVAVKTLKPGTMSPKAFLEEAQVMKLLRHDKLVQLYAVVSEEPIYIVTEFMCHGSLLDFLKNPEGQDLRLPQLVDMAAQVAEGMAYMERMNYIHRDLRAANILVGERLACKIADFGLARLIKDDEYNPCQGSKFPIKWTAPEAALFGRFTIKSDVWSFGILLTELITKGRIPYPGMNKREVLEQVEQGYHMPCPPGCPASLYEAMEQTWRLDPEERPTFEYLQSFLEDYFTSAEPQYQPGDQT
Chain of Activated CDC42 kinase 1 (Homo sapiens) (Q07912 whole entry, looked up): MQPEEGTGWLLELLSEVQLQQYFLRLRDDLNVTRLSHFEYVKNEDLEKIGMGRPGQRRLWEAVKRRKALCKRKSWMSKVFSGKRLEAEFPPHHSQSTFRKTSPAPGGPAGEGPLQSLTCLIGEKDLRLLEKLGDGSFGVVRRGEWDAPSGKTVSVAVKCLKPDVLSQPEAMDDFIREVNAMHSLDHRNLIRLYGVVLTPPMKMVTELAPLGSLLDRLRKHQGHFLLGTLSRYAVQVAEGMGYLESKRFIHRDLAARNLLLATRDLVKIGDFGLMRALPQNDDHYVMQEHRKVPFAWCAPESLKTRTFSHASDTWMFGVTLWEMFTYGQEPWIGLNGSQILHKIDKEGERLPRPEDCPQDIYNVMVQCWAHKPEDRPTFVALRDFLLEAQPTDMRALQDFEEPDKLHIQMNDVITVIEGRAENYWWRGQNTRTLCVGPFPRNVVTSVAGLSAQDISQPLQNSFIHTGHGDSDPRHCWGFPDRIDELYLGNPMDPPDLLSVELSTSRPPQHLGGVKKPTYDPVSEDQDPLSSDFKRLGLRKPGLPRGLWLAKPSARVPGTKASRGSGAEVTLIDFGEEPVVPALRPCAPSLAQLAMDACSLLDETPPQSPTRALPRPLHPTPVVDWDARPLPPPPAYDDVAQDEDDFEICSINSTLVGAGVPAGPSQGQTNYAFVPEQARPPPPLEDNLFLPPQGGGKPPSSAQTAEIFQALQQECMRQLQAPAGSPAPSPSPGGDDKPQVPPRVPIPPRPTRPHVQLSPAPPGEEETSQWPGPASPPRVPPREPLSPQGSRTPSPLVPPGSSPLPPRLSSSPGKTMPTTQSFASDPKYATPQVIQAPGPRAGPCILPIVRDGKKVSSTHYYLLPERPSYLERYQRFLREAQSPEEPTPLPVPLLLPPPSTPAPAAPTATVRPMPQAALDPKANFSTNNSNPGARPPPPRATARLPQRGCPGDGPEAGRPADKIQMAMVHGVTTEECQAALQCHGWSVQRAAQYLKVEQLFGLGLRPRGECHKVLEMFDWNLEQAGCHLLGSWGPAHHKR
Chain of Fibroblast growth factor receptor 2 (Homo sapiens) (P21802 22-821 limits assumed): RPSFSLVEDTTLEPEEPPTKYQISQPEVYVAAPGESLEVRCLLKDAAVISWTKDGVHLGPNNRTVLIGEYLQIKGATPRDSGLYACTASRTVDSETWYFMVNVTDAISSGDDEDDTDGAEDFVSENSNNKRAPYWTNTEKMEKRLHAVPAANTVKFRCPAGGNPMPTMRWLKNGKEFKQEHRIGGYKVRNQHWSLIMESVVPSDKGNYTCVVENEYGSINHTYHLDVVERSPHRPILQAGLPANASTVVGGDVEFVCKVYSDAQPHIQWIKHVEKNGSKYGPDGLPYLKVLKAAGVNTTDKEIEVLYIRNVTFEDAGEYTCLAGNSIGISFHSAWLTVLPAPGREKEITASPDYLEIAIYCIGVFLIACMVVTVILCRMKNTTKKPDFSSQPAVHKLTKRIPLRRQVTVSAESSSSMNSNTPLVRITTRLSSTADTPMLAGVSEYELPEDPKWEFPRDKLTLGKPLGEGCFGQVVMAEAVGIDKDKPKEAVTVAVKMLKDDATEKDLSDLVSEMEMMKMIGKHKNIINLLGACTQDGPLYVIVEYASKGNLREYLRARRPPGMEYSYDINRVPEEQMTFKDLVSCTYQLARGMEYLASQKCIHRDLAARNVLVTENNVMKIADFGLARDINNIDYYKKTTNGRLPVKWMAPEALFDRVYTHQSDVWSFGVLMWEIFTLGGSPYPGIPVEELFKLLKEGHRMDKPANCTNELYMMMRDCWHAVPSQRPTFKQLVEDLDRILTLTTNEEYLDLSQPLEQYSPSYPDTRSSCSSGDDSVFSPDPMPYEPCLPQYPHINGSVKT
Chain of Serine/threonine-protein kinase 4 (Homo sapiens) (Q13043 whole entry): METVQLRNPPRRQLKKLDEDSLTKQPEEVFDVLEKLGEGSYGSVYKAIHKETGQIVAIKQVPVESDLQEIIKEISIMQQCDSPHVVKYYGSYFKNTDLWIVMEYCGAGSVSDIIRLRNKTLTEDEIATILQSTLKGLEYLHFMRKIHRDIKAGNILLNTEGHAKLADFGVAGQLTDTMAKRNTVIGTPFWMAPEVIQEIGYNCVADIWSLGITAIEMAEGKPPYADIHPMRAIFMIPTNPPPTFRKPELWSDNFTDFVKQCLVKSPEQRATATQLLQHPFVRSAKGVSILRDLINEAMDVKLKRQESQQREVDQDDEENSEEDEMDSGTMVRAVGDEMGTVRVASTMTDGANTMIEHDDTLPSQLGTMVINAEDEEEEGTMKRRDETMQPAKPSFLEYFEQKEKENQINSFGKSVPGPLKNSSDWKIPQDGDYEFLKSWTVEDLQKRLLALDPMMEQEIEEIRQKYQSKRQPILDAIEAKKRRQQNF
Chain of B1 bradykinin receptor (Homo sapiens) (P46663 whole entry): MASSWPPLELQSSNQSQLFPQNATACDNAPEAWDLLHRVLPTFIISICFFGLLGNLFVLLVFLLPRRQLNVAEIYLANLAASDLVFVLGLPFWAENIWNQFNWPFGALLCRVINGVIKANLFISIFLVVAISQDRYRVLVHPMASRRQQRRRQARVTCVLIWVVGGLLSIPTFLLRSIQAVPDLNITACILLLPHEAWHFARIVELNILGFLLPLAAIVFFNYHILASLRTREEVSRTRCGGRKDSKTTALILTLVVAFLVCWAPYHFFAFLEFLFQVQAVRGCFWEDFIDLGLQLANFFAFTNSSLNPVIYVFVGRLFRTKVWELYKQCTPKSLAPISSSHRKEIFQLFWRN
Chain of Serine/threonine-protein kinase 32C (Homo sapiens) (Q86UX6 whole entry): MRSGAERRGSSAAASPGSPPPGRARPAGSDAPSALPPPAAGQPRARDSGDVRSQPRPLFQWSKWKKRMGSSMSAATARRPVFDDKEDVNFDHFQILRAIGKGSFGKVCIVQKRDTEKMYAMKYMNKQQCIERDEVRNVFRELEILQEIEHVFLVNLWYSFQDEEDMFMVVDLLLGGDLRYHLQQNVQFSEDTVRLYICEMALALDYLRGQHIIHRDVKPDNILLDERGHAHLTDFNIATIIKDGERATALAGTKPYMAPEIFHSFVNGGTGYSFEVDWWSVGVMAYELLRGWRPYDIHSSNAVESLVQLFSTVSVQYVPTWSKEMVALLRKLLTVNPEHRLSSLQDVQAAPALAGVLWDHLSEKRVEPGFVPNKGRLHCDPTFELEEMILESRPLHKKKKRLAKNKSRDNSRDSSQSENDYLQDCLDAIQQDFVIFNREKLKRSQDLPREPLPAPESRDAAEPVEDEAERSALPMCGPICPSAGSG
Chain of Cyclin-dependent kinase-like 4 (Homo sapiens) (Q5MAI5 whole entry): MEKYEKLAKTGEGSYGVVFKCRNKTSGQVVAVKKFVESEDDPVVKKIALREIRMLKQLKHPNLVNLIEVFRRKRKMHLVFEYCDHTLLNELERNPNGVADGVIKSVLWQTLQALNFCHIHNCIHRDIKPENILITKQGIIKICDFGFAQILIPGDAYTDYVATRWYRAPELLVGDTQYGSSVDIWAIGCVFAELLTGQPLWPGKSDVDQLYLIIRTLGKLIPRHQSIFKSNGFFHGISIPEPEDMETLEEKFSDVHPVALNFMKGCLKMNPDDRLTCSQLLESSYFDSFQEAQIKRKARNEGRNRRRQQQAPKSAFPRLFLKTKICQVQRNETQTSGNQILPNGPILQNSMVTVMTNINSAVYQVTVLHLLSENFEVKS

CC[C@@H](Nc1c(C#N)c(-c2ccc(-c3cccc(C)c3F)cc2)nc2cnccc12)C(=O)O [BAY-091]
inactive: [1] 2.76% | [2] 4.55% | [3] 27% | [4] -2.01% | [5] 8.64% | [6] 12.4% | [7] 12.5% | [8] 12.4% | [9] 3.04% | Rattus norvegicus 1% | [10] 9.63% | [11] 0% | [12] 5.05% | [13] 29.5% | [14] 10.5% | [15] 8.18% | Homo sapiens -8% | [16] 21% | [17] 5.05% | [18] 7% | [19] -6.79% | [20] 8% | [21] 5.5% | [22] 13.4% | [23] 0.08% | [24] 2.52% | [25] -2% | [26] 15.8% | [27] 12.6% | [28] 8.07% | [29] 11.7% | [30] 21.2% | [31] 16.2% | [32] 9.33% | [33] 13% | [34] 5.49% | [35] 20.6% | [36] -0.39% | [37] 2.66% | Sus scrofa 20% | [38] 18.1% | [39] -8.72% | [40] -5.61%
